The values below come from patent publication US5968791A, “Plant lysophosphatidic acid acyltransferases” (Calgene, Inc., priority 1995, dated 1999).

In experiment [1] the target is T1, coconut medium-chain LPAAT (Cocos nucifera, UniProt Q42670).
T1 construct: The frozen coconut P2 preparation is thawed and diluted in a volume of P2 Buffer; from tissue; host or cells: immature coconut endosperm, solubilized S3 supernatant of P2 membranes
T1 sequence (Q42670 1-308): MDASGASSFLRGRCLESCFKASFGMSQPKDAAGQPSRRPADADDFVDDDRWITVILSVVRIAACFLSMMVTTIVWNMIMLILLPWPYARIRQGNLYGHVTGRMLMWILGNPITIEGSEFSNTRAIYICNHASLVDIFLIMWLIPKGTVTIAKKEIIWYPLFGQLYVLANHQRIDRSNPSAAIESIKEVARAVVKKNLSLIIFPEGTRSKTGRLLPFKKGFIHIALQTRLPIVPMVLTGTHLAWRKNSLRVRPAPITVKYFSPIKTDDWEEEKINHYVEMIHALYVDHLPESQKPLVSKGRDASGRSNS
Description: Assay of solubilized coconut LPAAT (S3 preparation) with phospholipid activation. In kind it is biochemical. To be noted: for effect on LPAAT activity of the coconut S3 preparation: added at 1 mM; for reduction of LPAAT activity of the coconut S3 preparation: added at 10 mM. The procedure: After solubilization of LPAAT protein from plant membranes as described below, modification of the above assay conditions is required in order to detect maximum LPAAT activity. This is especially important after the solubilized LPAAT has been chromatographed on at least one column. The important modification to the assay is the addition, at the start of the assay procedure, of 1 μl of a concentrated phospholipid (PL) solution to 20 μl of the LPAAT-containing sample in a glass vial. The high concentrations of CHAPS (at least 1% w/v) and NaCl (typically 0.5M or greater) in the solubilized LPAAT preparation aid in dispersal of the phospholipids. The phospholipid solution is obtained by sonicating crude soybean phospholipids (L-phosphatidylcholine from soybean, "Type IVs" obtained from Sigma Chemical Company, St. Louis) at 50 mg/ml in 0.5% (w/v) CHAPS (3-[(3-cholamidopropyl) -dimethylammonio]-1-propane-sulfonate) until a uniform suspension is obtained.
The remaining assay ingredients (as described above), with the exception of the acyl-CoA substrate, are then added as 219 μl of a mixture. […] Radiolabeled acyl-CoA (10 μl, or an appropriately adjusted volume as indicated above) is added to start the LPAAT-catalyzed reaction and the rest of the assay procedure is completed as described above.
All steps are carried out at 0-4° C. The frozen coconut P2 preparation is thawed and diluted in a volume of P2 Buffer to achieve a protein concentration of 0.94 mg/ml P2 protein. Protein concentration is determined by Coomassie dye staining relative to a bovine serum albumin standard. The P2 membrane suspension is then diluted with an equal volume of Solubilization Buffer (50 mM HEPES-NaOH, pH 7.5, […], 20% (w/v) glycerol, 4.5% (w/v) CHAPS, 100 μM Pefabloc, 1 μM leupeptin, 1 μM Pepstatin A, and 5 mM β-ME), resulting in final concentrations of 1M NaCl, 2.25% (w/v) detergent, and 0.47 mg/ml protein. These component concentrations, and the resulting detergent/protein ratio of 48/1 (w/w), are important for optimal solubilization. The preparation is then incubated on ice for 30 minutes with occasional, gentle stirring, followed by centrifugation at 252,000×g for 2 hours. The resulting supernatant fraction (S3) is filtered through buffer-wetted Miracloth, and may then be stored frozen (-70) with only slight loss of activity. Optimally, it is applied to chromatography columns without an intervening freeze-thaw cycle.
Assay of the coconut medium-chain LPAAT activity after solubilization (S3 preparation) and reactivation with PLs, using different acyl-CoA substrates, provides the following results (Table 3). In all these assays the acceptor substrate is 12:0-LPA.

The target of another experiment is T2, coconut LPAAT (Cocos nucifera, UniProt Q42670).
T2 sequence (Q42670 1-308): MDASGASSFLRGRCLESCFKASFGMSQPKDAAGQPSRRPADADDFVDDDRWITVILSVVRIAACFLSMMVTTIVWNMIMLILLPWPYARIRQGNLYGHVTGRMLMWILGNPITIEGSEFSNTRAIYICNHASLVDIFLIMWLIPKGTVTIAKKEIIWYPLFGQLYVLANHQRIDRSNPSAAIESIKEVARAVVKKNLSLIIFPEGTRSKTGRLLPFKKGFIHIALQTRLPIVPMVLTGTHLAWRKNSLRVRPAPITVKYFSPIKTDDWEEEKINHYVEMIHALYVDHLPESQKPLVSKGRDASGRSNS
Put plainly: LPAAT activity assay, coconut P2 membrane preparation. More on the design: white endosperm tissue lining the inside of the endocarp can be dissected and collected; from tissue; host or cells: immature coconut endosperm, P2 membrane fraction. In kind it is biochemical. The note with it: for effect on medium-chain LPAAT activity: coconut P2. The procedure:
(§1) To assay for LPAAT activity, the sample is incubated with lysophosphatidic acid (LPA) and acyl-coenzyme A (acyl-CoA) substrates in buffered solution. The acyl substituents of the two substrates are chosen to correspond with the specificity of the enzyme being measured. For example, to measure activity of an LPAAT having preference for medium-chain substrates, lauroyl-LPA (lauroyl-lysophosphatidic acid) and lauroyl-CoA may be used, to measure activity of an LPAAT preferring longer-chain acyl groups, oleoyl-LPA and oleoyl-CoA may be used, to measure activity of an LPAAT preferring very-long chain substrate, erucyl-LPA and erucyl-CoA may be used, and so on, depending upon the type of LPAAT to be tested. The acyl group of one substrate is radioactively labeled in order to detect the product formed. In the examples which follow the acyl substituent of the acyl-CoA substrate is radiolabeled with ^14 C in the carboxyl group. LPAAT activity results in transfer of this acyl group from the acyl-CoA "donor" substrate to the LPA "acceptor" substrate, converting the latter into the product, phosphatidic acid (PA). LPAAT activity is measured as the amount of radioactive product formed in a given assay time. The PA product is radioactive as a result of the transferred radiolabeled acyl group at the central carbon atom of the molecule, and the quantity of PA formed may be determined by measuring radioactivity of the PA fraction. For this measurement, the PA is first separated from the acyl-CoA substrate by solvent partitioning, or by thin-layer chromatography (TLC).
(§2) 20 μl of the sample to be assayed for LPAAT activity is mixed with 217.5 μl of an assay ingredient mixture in a 4-ml, screw-cap vial. […] The incubation takes place in a water bath at 30° C., for 20-30 minutes.
(§3) To stop the assay, 0.25 ml of 1M KCl in 0.2M H3 PO4 is added to the vial. At this point, 40 μl BSA (bovine serum albumin, fraction V) at 1 mg/ml are added, followed by 0.75 ml of a solution of 67 μg/ml unlabeled PA (acting as a "carrier" to facilitate partitioning) in chloroform/methanol (2:1, v/v). The chain lengths of the PA acyl groups are chosen to correspond to those used in the assay substrates. Upon thorough mixing of these components the radiolabeled PA product of the LPAAT reaction partitions into the organic phase and away from the unreacted acyl-CoA and LPA. The vial is centrifuged briefly at low speed to facilitate the separation of organic (lower) and aqueous (upper) phases. The aqueous phase is then removed and discarded. The total radioactivity extracted into the organic phase is determined by liquid scintillation counting; a 100 μl sample of the organic phase is transferred to a 20 ml scintillation vial and allowed to dry, and scintillation fluid (3-5 ml) is added to the vial. The radioactivity of the sample, after subtraction of the "minus-enzyme" or "minus-LPA" radioactivities, is taken as an approximate indication of the amount of PA formed in the LPAAT-catalyzed reaction and therefore of LPAAT activity.
A more accurate estimation of the LPAAT activity may be obtained by separating the PA product from these contaminants by TLC. The remaining organic phase is applied to a silica TLC plate. Ascending chromatography is carried out for 50 minutes, using the solvent mixture chloroform/pyridine/88% formic acid (50:30:7, v/v). After the plate has dried, the distribution of radioactivity is visualized and quantitated using an AMBIS radioanalytic imaging system (AMBIS Systems Inc., San Diego, Calif.). From prior application of standard lipid components the Rf of the PA is known. The radioactivity associated with the PA spot is expressed as a percentage of the total radioactivity of the assay sample loaded on the plate. This ratio provides an indication of the proportion of the scintillation counts which represent the PA product, and may be used to correct the counts to obtain the total PA radioactivity formed in the assay. […]

The subject of another experiment is bay LPAAT. Description: LPAAT activity assay, California bay P2 membrane preparation. To be noted: for detergent concentration in the assay that inhibits long-chain LPAAT activity completely: 18:1-CoA and 18:1-LPA, concentrations w/v; for detergent concentration tolerated without complete loss of activity: 1-hour exposure, diluted prior to assay. In kind it is biochemical, Umbellularia californica.

Another experiment concerns Rapeseed LPAAT. Put plainly: LPAAT activity assay, rapeseed P2 membrane preparation. In kind it is biochemical, Brassica napus. To be noted: acyl-CoA donor varied, acceptor 12:0-LPA. As for the experimental part:
as §1, §2, §3
A more accurate estimation of the LPAAT activity may be obtained by separating the PA product from these contaminants by TLC. The remaining organic phase is applied to a silica TLC plate. […] After the plate has dried, the distribution of radioactivity is visualized and quantitated using an AMBIS radioanalytic imaging system (AMBIS Systems Inc., San Diego, Calif.). From prior application of standard lipid components the Rf of the PA is known. The radioactivity associated with the PA spot is expressed as a percentage of the total radioactivity of the assay sample loaded on the plate. This ratio provides an indication of the proportion of the scintillation counts which represent the PA product, and may be used to correct the counts to obtain the total PA radioactivity formed in the assay.
A P2 membrane homogenate from immature embryos of developing rapeseed (Brassica napus) seeds is prepared essentially as described above, except as noted below.

Where [2] appears, read: P2 membrane preparation, acyl-CoA donor varied, acceptor 12:0-LPA.

Description for bay LPAAT: To assay for LPAAT activity, the sample is incubated with lysophosphatidic acid (LPA) and acyl-coenzyme A (acyl-CoA) substrates in buffered solution. The acyl substituents of the two substrates are chosen to correspond with the specificity of the enzyme being measured. […] The acyl group of one substrate is radioactively labeled in order to detect the product formed. In the examples which follow the acyl substituent of the acyl-CoA substrate is radiolabeled with ^14 C in the carboxyl group. LPAAT activity results in transfer of this acyl group from the acyl-CoA "donor" substrate to the LPA "acceptor" substrate, converting the latter into the product, phosphatidic acid (PA). LPAAT activity is measured as the amount of radioactive product formed in a given assay time. The PA product is radioactive as a result of the transferred radiolabeled acyl group at the central carbon atom of the molecule, and the quantity of PA formed may be determined by measuring radioactivity of the PA fraction. For this measurement, the PA is first separated from the acyl-CoA substrate by solvent partitioning, or by thin-layer chromatography (TLC).

For `[Mg+2]` [Mg^2+], in experiment [1], the “effect on LPAAT activity of the coconut S3 preparation” value (“effect on LPAAT activity” for short) is “without significant effect” and the “reduction of LPAAT activity of the coconut S3 preparation” value (“reduction” for short) is at least 50%. In the case of `C[C@H](CCC(=O)NCCC[N+](C)(C)CCCS(=O)(=O)[O-])[C@H]1CC[C@H]2[C@@H]3[C@H](O)C[C@@H]4C[C@H](O)CC[C@]4(C)[C@H]3C[C@H](O)[C@]12C` [CHAPS, 3-[(3-cholamidopropyl) -dimethylammonio]-1-propane-sulfonate], the “concentration above which inhibitory in the medium-chain LPAAT assay” value on coconut LPAAT (coconut medium-chain LPAAT assay) is “above 0.1 % (w/v)”. Also, the inhibition at 5000 µg/mL at coconut LPAAT (read-out: LPAAT activity loss) was 50%. On to `CCCCCC(=O)SCCNC(=O)CCNC(=O)[C@H](O)C(C)(C)COP(=O)(O)OP(=O)(O)OC[C@H]1O[C@@H](n2cnc3c(N)ncnc32)[C@H](O)[C@@H]1OP(=O)(O)O` [6:0], for which the “LPAAT Activity from Bay” value in the experiment with bay LPAAT (setting [2]) is given as 1 pmol PA formed/30 min assay. In addition, the “LPAAT Activity from Rapeseed” value in the experiment with Rapeseed LPAAT is 0 pmol PA formed/30 min assay. For the same molecule, the “LPAAT Activity, solubilized coconut LPAAT” value in experiment [1] (radioactivity of PA product resolved on TLC, after 30 min assay, S3 reactivated with PLs, acceptor 12:0-LPA) was determined as 1 cpm. The “LPAAT Activity from Coconut” value at coconut LPAAT (setting [2]) is 3 pmol PA formed/30 min assay. On to lysophosphatidylcholine, for which the “effect on medium-chain LPAAT activity” value at coconut LPAAT (60 μM in the assay system) is given as “unaffected”. As for `C[C@H](CCC(=O)O)[C@H]1CC[C@H]2[C@@H]3CC[C@@H]4C[C@H](O)CC[C@]4(C)[C@H]3C[C@H](O)[C@]12C` [sodium deoxycholate], the “detergent concentration in the assay that inhibits long-chain LPAAT activity completely” value in the experiment with bay LPAAT (bay P2 preparation) is 0.1%. As to `CCCCCCCCCCCCOS(=O)(=O)[O-].[Na+]` [SDS, sodium dodecyl sulfate], in the experiment with bay LPAAT (bay P2 preparation), the “detergent concentration in the assay that inhibits long-chain LPAAT activity completely” value stood at 0.002%.

`CCCCCCCCCCCCCC[N+](C)(C)CCCS(=O)(=O)[O-]` [Zwittergent 3-14]: in the experiment on bay LPAAT (bay P2 preparation), the “detergent concentration in the assay that inhibits long-chain LPAAT activity completely” value is 0.005%. As for `CCCCCCCCO[C@@H]1O[C@H](CO)[C@@H](O)[C@H](O)[C@H]1O` [octyl glucoside], in the experiment with bay LPAAT (bay P2 preparation), the “detergent concentration tolerated without complete loss of activity” value is recorded as 0.5% and the “detergent concentration in the assay that inhibits long-chain LPAAT activity completely” value was found to be 0.1%. `Nc1ncnc2c1ncn2[C@@H]1O[C@H](COP(=O)(O)OP(=O)(O)OP(=O)(O)O)[C@@H](O)[C@H]1O` [adenosine-5'-triphosphate]: at coconut LPAAT (2 mM in the assay system), the “effect on medium-chain LPAAT activity” value is “unaffected”. For the molecule `[Ca+2]` [Ca^2+], in experiment [1], the “effect on LPAAT activity” value is “without significant effect” and the “reduction” value is recorded as at least 50%.

Take `[Mn+2]` [Mn^2+]: in experiment [1], the “effect on LPAAT activity” value is given as “without significant effect” and the “reduction” value is on record as at least 50%. Turning to `CC(C)(COP(=O)(O)OP(=O)(O)OC[C@H]1O[C@@H](n2cnc3c(N)ncnc32)[C@H](O)[C@@H]1OP(=O)(O)O)[C@@H](O)C(=O)NCCC(=O)NCCS` [CoA], the “effect on medium-chain LPAAT activity” value on coconut LPAAT (0.1 mM in the assay system) is reported as “unaffected”. On to Tween 20, for which, in the experiment on bay LPAAT (bay P2 preparation), the “detergent concentration tolerated without complete loss of activity” value is 2.5% and the “detergent concentration in the assay that inhibits long-chain LPAAT activity completely” value was found to be 1%.

Triton X100: in the experiment with bay LPAAT (bay P2 preparation), the “detergent concentration tolerated without complete loss of activity” value is recorded as 0.1% and the “detergent concentration in the assay that inhibits long-chain LPAAT activity completely” value came out at 0.03%.

B1: 18:1-ACP: 18:1 acyl-ACP tested as LPAAT donor substrate (conjugate, UniProt P0A6A8 2-78, looked up)
Acyl carrier protein: STIEERVKKIIGEQLGVKQEEVTNNASFVEDLGADSLDTVELVMALEEEFDTEIPDEEAEKITTVQAAIDYINGHQA
modifications: 18:1 acyl thioester
notes: 18:1 acyl-ACP tested as LPAAT donor substrate
In the case of B1, the “utilization as LPAAT donor substrate instead of 18:1-CoA” value in the experiment with bay LPAAT (bay P2 preparation) is recorded as “will not significantly utilize”.
